The record followed here is patent publication US20140179519A1, “N-THIO-ANTHRANILAMIDE COMPOUNDS AND THEIR USE AS PESTICIDES” (BASF SE, priority 2011, published 2014).

Assay [1] relates to Orchid thrips (Dichromothrips corbetti). In words: CE.1 Orchid thrips floral-immersion test, comparison with comparative compounds. It counts as in vivo. The settings on record: for % activity (mortality of Orchid thrips in %, vs. untreated control): floral immersion, 72 hours after treatment. The procedure:
(§1) The activity summarized in the tables hereinbelow are given as percentage of mortality in comparison with untreated control
Dichromothrips corbetti adults used for bioassay were obtained from a colony maintained continuously under laboratory conditions. For testing purposes, the test compound is diluted in a 1:1 mixture of acetone:water (vol:vol), plus 0.01% vol/vol Alkamuls® EL 620 surfactant.
Thrips potency of each compound was evaluated by using a floral-immersion technique. Plastic petri dishes were used as test arenas. All petals of individual, intact orchid flowers were dipped into treatment solution and allowed to dry. Treated flowers were placed into individual petri dishes along with about 20 adult thrips. The petri dishes were then covered with lids. All test arenas were held under continuous light and a temperature of about 28° C. for duration of the assay. After 3 days, the numbers of live thrips were counted on each flower, and along inner walls of each petri dish. The percent mortality was recorded 72 hours after treatment.

For assay [2], the system named is Rice green leafhopper (Nephotettix virescens). In words: CE.2 Rice green leafhopper spray test on rice seedlings, comparison with comparative compound. The class given is in vivo. As to conditions: for % activity (mortality of Rice green leafhopper in %, vs. untreated control): sprayed rice seedlings, after 72 hours. The procedure: as §1
Rice seedlings were cleaned and washed 24 hours before spraying. The active compounds were formulated in 50:50 acetone:water (vol:vol), and 0.1% vol/vol surfactant (EL 620) was added. Potted rice seedlings were sprayed with 5 ml test solution, air dried, placed in cages and inoculated with 10 adults. Treated rice plants were kept at about 28-29° C. and relative humidity of about 50-60%. Percent mortality was recorded after 72 hours.

The mark [3] stands for this setting: percent mortality 72 hours after treatment.

In the case of `Cc1cc(Cl)cc(C(=O)N=S(C)C)c1NC(=O)c1cc(C(F)F)nn1-c1ncccc1Cl` [Compound 4], the results for the “% activity (mortality of Orchid thrips in %, vs. untreated control)” value in assay [1] (10 ppm active ingredient), in assay [1] (100 ppm active ingredient) and in assay [1] (300 ppm active ingredient) were 95%, 100% and 100%, respectively. In assay [1] (setting [3]), the “activity against Orchid thrips in comparison with comparative compound CC-1” value is recorded as “superior activity”.

As for `Cc1cc(Cl)cc(C(=O)N=S(C(C)C)C(C)C)c1NC(=O)c1cc(C(F)F)nn1-c1ncccc1Cl` [Compound 25], the “% activity (mortality of Rice green leafhopper in %, vs. untreated control)” value in assay [2] (100 ppm active ingredient) amounted to 50%; in assay [2] (300 ppm active ingredient), 100%; in assay [2] (500 ppm active ingredient), 100%. Besides, in assay [2] (percent mortality after 72 hours), the “activity against Rice green leafhopper in comparison with comparative compound CC-2” value is “superior activity”. Besides, the “% activity (mortality of Orchid thrips in %, vs. untreated control)” value in assay [1] (10 ppm active ingredient) was 95%; in assay [1] (100 ppm active ingredient) it was 100%; in assay [1] (300 ppm active ingredient) it was 100%. The “activity against Orchid thrips in comparison with comparative compound CC-2” value in assay [1] (setting [3]) is on record as “superior activity”.
